Results taken from US20150192570A1, “METHODS FOR DETERMINING WHETHER A CYTOMEGALOVIRUS INFECTION IN A TRANSPLANTED PATIENT IS SUCEPTIBLE TO INDUCE ALLOGRAFT REJECTION” (priority 2012, published 2015).

Assays:
[1] = target: classical HLA-I molecules on IFN-γ treated HAEC#495; test: cell-based or functional assay
[2] = target: protective HLA-C molecules (KIR2DL2 ligands) expressed on HAEC; test: cell-based or functional assay
[3] = tested on: MART.22 HLA-E-restricted CD8 T cells; test: TNF production by MART.22 T cells in response to .221 cells pulsed with synthetic peptides (intracellular TNF-α staining); format: cell-based, human; settings: .221 cells loaded with synthetic peptide
Description: For cytokine/perforine/granzyme intracellular staining, 1×10^5 T cells were stimulated in the presence of Brefeldin A (Sigma-Aldrich, 10 μg/ml) with 2×10^5 target cells (B-EBV cells or HAEC) for 6 h at 37° C., in the presence or not of blocking Abs. For peptide loading, target cells were incubated with peptides for 1 h at 37° C. before incubation with T cells. Cells were then fixed with 4% paraformaldehyde (Sigma-Aldrich), labeled with specific mAbs and analyzed by flow cytometry.

[4] = tested on: MART.22 HLA-E-restricted CD8 T cells; test: Peptide/HLA-E*0101 tetramer staining of MART.22 T cells by flow cytometry; format: binding, human; settings: PE-streptavidin tetramers, 1 h
Description: A/ TNF production in response to stimulation with .221 cells pulsed with synthetic peptides. .221 cells were incubated for 1 h with range concentrations of the indicated peptides before addition of MART.22 T cells. After 6 h, T cells were fixed, permeabilized and stained for intracellular TNF-α. Results are expressed as percentage of TNF-producing T cells. B/ Peptide-MHC tetramer staining of HLA-E-restricted CD8 T cells. MART.22 T cells were incubated for 1 h with biotyniled HLA-E monomers refolded with the indicated peptides and tetramerized with PE-coupled streptavidin. Peptide-HLA-E tetramers staining was assessed by flow cytometry and MFI are indicated.
Peptides VMAPRTLLL and VMAPRTLVL (HLA-A*01- and HLA-A*02-derived signal peptides respectively) with purity >85% were purchased from Eurogentec (Angers, France). HLA-E*0101/peptide monomers were generated by the recombinant protein facility of SFR26 (Nantes, France).
For membrane staining, 2×10^5 cells were incubated at 4° C. with 10 μg/ml of Ab (specific or isotype control) or tetramers for 30 min or 1 h respectively. When non-conjugated mAb were used, a second incubation with PE-conjugated goat F(ab′)2 fragment anti-Mouse IgG (Beckman Coulters) was performed. 5×10^4 cells were acquired in the viable cells gate on a FACScalibur flow cytometer using CellQuest software (Becton Dickinson).

[5] = tested on: MART.22 HLA-E-restricted CD8 T cells; test: TNF production by MART.22 against unrecognized endothelial culture HAEC#402 pulsed with synthetic peptides; format: cell-based, human; settings: HAEC#402 loaded with 10^2 μM of peptide
Description: A/ Reactivity of HLA-E-restricted T cells against unrecognized endothelial cultures pulsed with synthetic peptides. HAECs were incubated for 1 h with range concentrations of the indicated peptides before MART.22 T cells were added. After 6 h, T cells were fixed, permeabilized and stained for intracellular TNF-α. Results are expressed as percentage of TNF-producing T cells. B/ Impact of KIR2DL2-ligands expression by HAECs on HLA-E-restricted T cells alloreactivity. Percentages of TNF-producing MART.22 T cells are shown for HAECs with none, one or two protective HLA-C alleles. C/ Reactivity of HLA-E-restricted T cells against unrecognized endothelial cultures in the presence of blocking antibodies. HAECs were incubated with MART.22 T cells in the presence or not of indicated concentrations of blocking antobodies. After 6 h, T cells were fixed, permeabilized and stained for intracellular TNF-α. Results are expressed as percentage of TNF-producing T cells.
(§1) For cytokine/perforine/granzyme intracellular staining, 1×10^5 T cells were stimulated in the presence of Brefeldin A (Sigma-Aldrich, 10 μg/ml) with 2×10^5 target cells (B-EBV cells or HAEC) for 6 h at 37° C., in the presence or not of blocking Abs. […] Cells were then fixed with 4% paraformaldehyde (Sigma-Aldrich), labeled with specific mAbs and analyzed by flow cytometry.

[6] = tested on: HAEC; test: Surface expression of HLA-E and total HLA-I on endothelial cultures after IFN-γ treatment (flow cytometry); format: cell-based, human; settings: IFN-γ 50 U/mL, 48 h
Description: (§2) A/ impact of IFN-γ treatment on surface expression of HLA-E (thick lines) and total HLA-I (dotted lines) molecules by endothelial cultures. MFI are indicated. B/ HLA-E-restricted CD8 T cells cytotoxicity toward endothelial cultures treated or not with IFN-γ. 103 ^51 Cr-labeled HAECs pretreated (closed circles) or not (open circle) with IFN-γ were co-cultured for 4 h with T cells at various E:T ratio. Cytotoxic activity was assessed trought measure of Chromium release in the supernatants. Percentages of specific lysis are indicated. Means and standard deviations of triplicate wells are shown for one representative experiments out of three performed. C/ HLA-E-restricted CD8 T cells cytokine production upon stimulation with endothelials cultures treated or not with IFN-γ. MART.22 T cells were fixed, permeabilized and stained for intracellular cytokines following 6 h of incubation with HAECs pretreated (black bars) or not (white bars) with INF-γ. Data are expressed as percentages of intracellular cytokine secreting T cells upon stimulation. D/ HLA-E-restricted CD8 T cells cytokine production upon stimulation with endothelials cultures treated or not by IFN-γ, in the presence of blocking antibodies. […] Data are expressed as percentages of intracellular TNF secreting T cells upon stimulation. […]

[7] = tested on: HAEC; test: Recognition (lysis, cytokine production) of IFN-γ treated endothelial cultures by MART.22; format: cell-based, human
Description: as §2, with “stimulation.” for “stimulation. D/ HLA-E-restricted CD8 T cells cytokine production upon stimulation with endothelials cultures treated or not by IFN-γ, in the presence of blocking antibodies.”
as §1
Target cells were labeled with 100 μCi Na^51CrO4 (Oris Industrie, Gif-sur-Yvette, France) for 1 h at 37° C., and incubated 4 h at 37° C., with effectors T cells at various E/T ratios. […] Percentage of target cell lysis was calculated according to the following formula: [(experimental release−spontaneous release)/(maximum release−spontaneous release)]×100. Maximum and spontaneous releases were determined by, respectively, adding 0.1% Triton X-100 or medium to ^51Cr-labeled target cells in the absence of T cells.

In the case of “KIR2DL2 expressed by MART.22 T cells (from UniProt P43627 22-348) (receptor)”, the TNF-α producing T cells against IFN-γ treated endothelial cells at the maximal dose of mAb against classical HLA-I molecules [1] was 69%, the TNF producing T cells, endothelial cells with no appropriate HLA-C allele (HAEC#323) [2] was 75% and the TNF producing T cells, endothelial cells with only one appropriate HLA-C allele (HAEC#112, #331 and #495) [2] was 54%. For the same molecule, the TNF producing T cells, mean value for endothelial cells with two appropriate HLA-C alleles (HAEC#116, #337 and #402) [2] was 18% and the TNF-producing T cells against HAEC#402 in the presence of anti-HLA-A/B/C Abs [2] was under 25%.

With VTAPRTLLL the “recognition of peptide-pulsed .221 cells by MART.22” value (from here on “recognition”) [3] was “not recognized at all”.

In the case of “VMAPRTLVL [HLA-A*02-derived signal peptide, identical to a CMV UL40 peptide]”, the “recognition” value [3] was “not recognized at all” and the “binding of HLA-E*0101 tetramers refolded with the peptide to MART.22” value [4] was “no significant binding”.

With `CSCC[C@H](NC(=O)[C@@H](N)C(C)C)C(=O)N[C@@H](C)C(=O)N1CCC[C@H]1C(=O)N[C@@H](CCCNC(=N)N)C(=O)N[C@H](C(=O)N[C@@H](CC(C)C)C(=O)N[C@@H](CC(C)C)C(=O)N[C@@H](CC(C)C)C(=O)O)[C@@H](C)O` [VMAPRTLLL] the “binding of HLA-E*0101 tetramers refolded with the peptide to MART.22” value [4] was “bind” and the “TNF secreting T cells” value [5] was 40%.

VTAPRTVLL was tested, and the “recognition” value [3] was “not recognized at all”.

“ILT-2 expressed by MART.22 T cells (from UniProt Q8NHL6 24-650) (receptor)” showed a TNF-α producing T cells against IFN-γ treated endothelial cells at the maximal dose of mAb against classical HLA-I molecules [1] of 69%.

`CSCC[C@H](NC(=O)[C@@H](N)C(C)C)C(=O)N[C@@H](C)C(=O)N1CCC[C@H]1C(=O)N[C@@H](CCCNC(=N)N)C(=O)N[C@H](C(=O)N[C@H](C(=O)N[C@@H](CC(C)C)C(=O)N[C@@H](CC(C)C)C(=O)O)C(C)C)[C@@H](C)O` [VMAPRTVLL] was tested, and the “TNF secreting T cells” value [5] was 18%.

With “IFN-γ: recombinant human IFN-γ (50 U/mL, Imukin, Boehringer Ingelheim)” the “HLA-E and total HLA-I surface expression on endothelial cells” value [6] was “enhances”, the “MART.22 reactivity against IFN-γ treated HAEC#116” value ([7]; HAEC#116, unpublished data) was “completely abolished” and the “MART.22 mediated lysis and cytokine production” value ([7]; IFN-γ treated endothelial cells) was “decreased”. For the same molecule, the “TNF-α producing T cells upon stimulation with HAEC#495” value ([7]; after IFN-γ treatment, 61% untreated) was 33%.
